Assay results: ChEMBL document CHEMBL1201862, “PubChem BioAssay data set” (2004)
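1) Cells in 96-well plates. 2) Compound, 48 h, 5 concentrations. 3) Linear interpolation between surrounding doses. 4) Unreached endpoint = highest concentration. GI50 marks 50% less growth.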 Activity calls are given as the source filed them. Rule as the data show it: active = GI50 up to about 1.1 µM and inactive = higher.

Assays:
Test in all cases: NCI anticancer screen, dose series, 48 h
NCI-H460 = tested on: NCI-H460
HCT-116 = tested on: HCT-116
K562 = tested on: K562
A549 = tested on: A549
SF-295 = tested on: SF-295
ACHN = tested on: ACHN
LXFL 529 = tested on: LXFL 529
A498 = tested on: A498
HT-29 = tested on: HT-29
DLD-1 = tested on: DLD-1
OVCAR-8 = tested on: OVCAR-8
OVCAR-4 = tested on: OVCAR-4
SF-268 = tested on: SF-268
UO-31 = tested on: UO-31
SN12C = tested on: SN12C
SK-OV-3 = tested on: SK-OV-3
HCT-15 = tested on: HCT-15
MOLT-4 = tested on: MOLT-4
CCRF-CEM = tested on: CCRF-CEM
M19-MEL = tested on: M19-MEL
NCI-H23 = tested on: NCI-H23
OVCAR-3 = tested on: OVCAR-3
UACC-62 = tested on: UACC-62
DMS-273 = tested on: DMS-273
NCI-H522 = tested on: NCI-H522
RXF 631 = tested on: RXF 631
HCC 2998 = tested on: HCC 2998
SF-539 = tested on: SF-539
U-251 = tested on: U-251
786-0 = tested on: 786-0
HOP-18 = tested on: HOP-18
OVCAR-5 = tested on: OVCAR-5
HOP-92 = tested on: HOP-92
NCI-H226 = tested on: NCI-H226
UACC-257 = tested on: UACC-257
IGROV-1 = tested on: IGROV-1
RPMI-8226 = tested on: RPMI-8226
SNB-19 = tested on: SNB-19
SK-MEL-5 = tested on: SK-MEL-5
SR = tested on: SR
HOP-62 = tested on: HOP-62
EKVX = tested on: EKVX
SNB-78 = tested on: SNB-78
COLO 205 = tested on: COLO 205
RXF 393 = tested on: RXF 393
LOX IMVI = tested on: LOX IMVI
SNB-75 = tested on: SNB-75
XF498 = tested on: XF498
KM12 = tested on: KM12
HL-60 = tested on: HL-60
SK-MEL-2 = tested on: SK-MEL-2
CAKI-1 = tested on: CAKI-1
DMS-114 = tested on: DMS-114
SW-620 = tested on: SW-620
KM-20L2 = tested on: KM-20L2
TK-10 = tested on: TK-10
SK-MEL-28 = tested on: SK-MEL-28
Malme-3M = tested on: Malme-3M
M14 = tested on: M14

Measured: GI50

O=C(O)CCC(=O)N1C/C(=C\c2ccccc2)C(=O)/C(=C/c2ccccc2)C1
active: CCRF-CEM 1.03 µM | NCI-H522 1.07 µM | SR 0.59 µM
inactive: NCI-H460 8.22 µM | HCT-116 1.75 µM | K562 1.19 µM | A549 19.1 µM | SF-295 2.44 µM | ACHN 2.07 µM | LXFL 529 2.67 µM | A498 13.9 µM | HT-29 2.23 µM | DLD-1 2.32 µM | OVCAR-8 3.09 µM | OVCAR-4 2.3 µM | SF-268 2.48 µM | UO-31 18.6 µM | SN12C 1.93 µM | SK-OV-3 12.7 µM | MOLT-4 2.34 µM | M19-MEL 1.75 µM | NCI-H23 3.64 µM | OVCAR-3 2.41 µM | UACC-62 1.26 µM | DMS-273 2.16 µM | RXF 631 3.66 µM | HCC 2998 2.17 µM | SF-539 1.82 µM | U-251 1.78 µM | 786-0 2.52 µM | HOP-18 5.55 µM | OVCAR-5 15 µM | HOP-92 16.3 µM | NCI-H226 18 µM | UACC-257 2.29 µM | IGROV-1 3.45 µM | RPMI-8226 2.42 µM | SNB-19 3.16 µM | SK-MEL-5 2.65 µM | HOP-62 16.8 µM | EKVX 5.02 µM | SNB-78 7.24 µM | COLO 205 3.47 µM | RXF 393 3.67 µM | LOX IMVI 1.68 µM | SNB-75 6.82 µM | XF498 2.7 µM | KM12 1.82 µM | HL-60 2.21 µM | SK-MEL-2 1.82 µM | CAKI-1 4.71 µM | DMS-114 2.18 µM | SW-620 1.58 µM | KM-20L2 2.92 µM | TK-10 9.1 µM | SK-MEL-28 1.97 µM | Malme-3M 2.33 µM | M14 2.32 µM
2.06 µM: HCT-15
